Experimental findings from US8124624B2, “Substituted sulfonamide compounds” (Gruenenthal GmbH, priority 2008, dated 2012) are described below.

Experiment [1] deals with T1, B1R of the rat (Rattus norvegicus, UniProt P97583).
T1 construct: expressed in transfected cells; host or cells: CHO K1 cells (rB1R cells)
T1 sequence (P97583 1-337): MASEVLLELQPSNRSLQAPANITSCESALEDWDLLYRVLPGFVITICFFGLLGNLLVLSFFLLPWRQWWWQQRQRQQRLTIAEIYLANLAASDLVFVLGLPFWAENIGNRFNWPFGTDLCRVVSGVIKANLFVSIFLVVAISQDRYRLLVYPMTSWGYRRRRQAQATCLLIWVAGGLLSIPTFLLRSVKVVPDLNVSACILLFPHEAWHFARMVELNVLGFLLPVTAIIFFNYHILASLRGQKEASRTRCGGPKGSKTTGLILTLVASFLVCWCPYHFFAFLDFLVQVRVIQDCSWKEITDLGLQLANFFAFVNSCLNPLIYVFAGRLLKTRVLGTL
In words: FLIPR Ca2+ influx assay, B1R antagonism, rat (rB1R CHO K1 cells). Type of experiment: cell-based. On the procedure: (§1) The agonistic or antagonistic action of substances can be quantified on the bradykinin receptor 1 (B1R) of the species human and rat using ectopically expressing cell lines (CHO K1 cells) and with the aid of a Ca^2+-sensitive dye (Fluo-4) using a fluorescent imaging plate reader (FLIPR). The indication in % activation is based on the Ca^2+ signal after addition of Lys-Des-Arg^9-bradykinin (0.5 nM) or Des-Arg^9-bradykinin (100 nM). Antagonists lead to suppression of the Ca^2+ influx after the addition of the agonist. % Inhibition compared with the maximum achievable inhibition is indicated.
(§2) The agonistic or antagonistic action of substances can be determined on the bradykinin receptor 1 (B1R) of the species human and rat using the following assay. According to this assay, the Ca^2+ influx through the channel is quantified with the aid of a Ca^2+-sensitive dye (Fluo-4 type, Molecular Probes Europe BV, Leiden, Netherlands) using a Fluorescent Imaging Plate Reader (FLIPR, Molecular Devices, Sunnyvale, USA).
(§3) Chinese hamster ovary cells (CHO K1 cells) which have been stably transfected with the human B1R gene (hB1R cells) or with the B1R gene of the rat (rB1R cells) are used. For functional studies, the cells are plated out on black 96-well plates having a clear base (BD Biosciences, Heidelberg, Germany or Greiner, Frickenhausen, Germany) in a density of 20,000-35,000 cells/well. The cells are incubated overnight at 37° C. and with 5% CO2 in culture medium (hB1R cells: Nutrient Mixture Ham's F12, Gibco Invitrogen GmbH, Karlsruhe, Germany or DMEM, Sigma-Aldrich, Taufkirchen, Germany; rB1R cells: D-MEM/F12, Gibco Invitrogen GmbH, Karlsruhe, Germany), with 10 vol. % FBS (fetal bovine serum, Gibco Invitrogen GmbH, Karlsruhe, Germany or PAN Biotech GmbH, Aidenbach, Germany).
(§4) On the following day, the cells are loaded for 60 minutes at 37° C. with 2.13 μM Fluo-4 (Molecular Probes Europe BV, Leiden, Netherlands) in HBSS buffer (Hank's buffered saline solution, Gibco Invitrogen GmbH, Karlsruhe, Germany) […] (Sigma-Aldrich, Taufkirchen, Germany) and 10 mM HEPES (Sigma-Aldrich, Taufkirchen, Germany). The plates are then washed twice with HBSS buffer, and HBSS buffer additionally containing 0.1% BSA (bovine serum albumin; Sigma-Aldrich, Taufkirchen, Germany), 5.6 mM glucose and 0.05% gelatin (Merck KGaA, Darmstadt, Germany) is added to the plates. After incubation for a further 20 minutes at room temperature, the plates are inserted into the FLIPR for Ca^2+ measurement.
(§5) Alternatively, washing is carried out with buffer A (15 mM HEPES, 80 mM NaCl, 5 mM KCl, 1.2 mM CaCl2, 0.7 mM MgSO4, 2 g/l glucose, 2.5 mM probenecid) followed by loading with buffer A with added 2.5 μM Fluo-4 and 0.025% Pluronic F127 (Sigma-Aldrich, Taufkirchen, Germany). The cells are then washed twice with buffer A and incubated for 30 minutes at room temperature with buffer A additionally containing 0.05% BSA and 0.05% gelatin and are then inserted into the FLIPR for Ca^2+ measurement.
(§6) The Ca^2+-dependent fluorescence is measured before and after the addition of substances (λex=488 nm, λem=540 nm). Quantification is carried out by measuring the highest fluorescence intensity (FC, fluorescence counts) over time.
(§7) The FLIPR protocol consists of two substance additions. Test substances (10 μM) are first pipetted onto the cells and the Ca^2+ influx is compared with the control (hB1R: Lys-Des-Arg^9-bradykinin >=50 nM; rB1R: Des-Arg^9-bradykinin 10 μM). This gives the activation in %, based on the Ca^2+ signal after addition of Lys-Des-Arg^9-bradykinin (>=50 nM) or Des-Arg^9-bradykinin (10 μM). After 10-20 minutes' incubation, Lys-Des-Arg^9-bradykinin (hB1R) or Des-Arg^9-bradykinin (rB1R) is applied in the concentration of the EC80, and the influx of Ca^2+ is likewise determined. Antagonists lead to suppression of the Ca^2+ influx. The % inhibition compared with the maximum achievable inhibition is calculated. […]

Experiment [2] concerns the target T2, human B1R (Homo sapiens, UniProt P46663).
T2 construct: expressed in transfected cells; host or cells: CHO K1 cells (hB1R cells)
T2 sequence (P46663 1-353): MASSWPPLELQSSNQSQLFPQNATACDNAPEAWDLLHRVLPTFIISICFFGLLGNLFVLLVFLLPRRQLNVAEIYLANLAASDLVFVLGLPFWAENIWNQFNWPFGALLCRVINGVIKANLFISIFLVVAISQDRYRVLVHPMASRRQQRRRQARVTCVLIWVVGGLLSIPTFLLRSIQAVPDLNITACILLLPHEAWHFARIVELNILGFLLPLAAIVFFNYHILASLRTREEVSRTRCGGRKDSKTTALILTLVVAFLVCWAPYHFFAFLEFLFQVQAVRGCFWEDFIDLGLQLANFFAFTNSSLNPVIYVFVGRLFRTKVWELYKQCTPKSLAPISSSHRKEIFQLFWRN
In words: FLIPR Ca2+ influx assay, B1R antagonism, human (hB1R CHO K1 cells). Type of experiment: cell-based. As for the experimental part:
as §1, §2, §3, §4, §5, §6, §7

Setting [3] is: test substance 10 μM, CHO K1 cells stably transfected with rat B1R, agonist Des-Arg9-bradykinin at EC80, % inhibition compared with maximum achievable inhibition, read-out: B1R antagonism, rat [10 μM] % inhibition.
[4] abbreviates: test substance 10 μM, CHO K1 cells stably transfected with human B1R, agonist Lys-Des-Arg9-bradykinin at EC80, % inhibition compared with maximum achievable inhibition, read-out: B1R antagonism, human [10 μM] % inhibition.
Where [5] appears, read: CHO-K1, read-out: B1R antagonism, rat [10 μM] % inhibition.
The mark [6] stands for this setting: CHO-K1, read-out: B1R antagonism, human [10 μM] % inhibition.

Read-outs that look alike come from different tables or passages of the source.

In general, inhibition refers to the drop in the measured response relative to a control, in per cent. For the compound `O=C(CC(NS(=O)(=O)c1ccc2ccccc2c1)c1ccccc1)N1CCC(CCN2CCCC2)(c2cccnc2)CC1` (centres unmarked) [Example 1, N-(3-Oxo-1-phenyl-3-(4-(pyridin-3-yl)-4-(2-(pyrrolidin-1-yl)ethyl)piperidin-1-yl)propyl)naphthalene-2-sulfonamide], the inhibition at 10 µM in experiment [1] (setting [3]) was 63%; in experiment [2] (setting [4]) it was 104%.

As for `COc1cc(C)c(S(=O)(=O)N2CCCCC2COCC(=O)N2CCC(CCN3CCCC3)(c3cccnc3)CC2)c(C)c1` (centres unmarked) [Example 2, 2-((1-(4-Methoxy-2,6-dimethylphenylsulfonyl)piperidin-2-yl)methoxy)-1-(4-(pyridin-3-yl)-4-(2-(pyrrolidin-1-yl)ethyl)piperidin-1-yl)ethanone], the inhibition at 10 µM was determined as 102% in experiment [1] (setting [5]) and 103% in experiment [2] (setting [6]).

For `COc1cc(C)c(S(=O)(=O)N(C)CCOCC(=O)N2CCC(CCN3CCCC3)(c3cccnc3)CC2)c(C)c1` [Example 3, 4-Methoxy-N,2,6-trimethyl-N-(2-(2-oxo-2-(4-(pyridin-3-yl)-4-(2-(pyrrolidin-1-yl)ethyl)piperidin-1-yl)ethoxy)ethyl)benzenesulfonamide], the inhibition at 10 µM in experiment [1] (setting [5]) is 101%; in experiment [2] (setting [6]), 103%.

As for `O=C(CC1CCCCN1S(=O)(=O)c1cccc(C(F)(F)F)c1)N1CCC(CCN2CCCC2)(c2cccnc2)CC1` (centres unmarked) [Example 4, 1-(4-(Pyridin-3-yl)-4-(2-(pyrrolidin-1-yl)ethyl)piperidin-1-yl)-2-(1-(3-(trifluoromethyl)phenylsulfonyl)piperidin-2-yl)ethanone], the figures for the inhibition at 10 µM in experiment [1] (setting [5]) and in experiment [2] (setting [6]) were 102% and 103%, respectively.

`Cc1cc(S(=O)(=O)N2CCCCC2CCC(=O)N2CCC(CCN3CCCC3)(c3cccnc3)CC2)c(C)cc1Cl` (centres unmarked) [Example 5, 3-(1-(4-Chloro-2,5-dimethylphenylsulfonyl)piperidin-2-yl)-1-(4-(pyridin-3-yl)-4-(2-(pyrrolidin-1-yl)ethyl)piperidin-1-yl)propan-1-one]: the inhibition at 10 µM was determined as 61% in experiment [1] (setting [3]) and 101% in experiment [2] (setting [4]).

As for `O=C(COCC1CCc2ccccc2N1S(=O)(=O)c1ccc(Cl)c(Cl)c1)N1CCC(CCN2CCCC2)(c2cccnc2)CC1` (centres unmarked) [Example 6, 2-((1-(3,4-Dichlorophenylsulfonyl)-1,2,3,4-tetrahydroquinolin-2-yl)methoxy)-1-(4-(pyridin-3-yl)-4-(2-(pyrrolidin-1-yl)ethyl)piperidin-1-yl)ethanone], the inhibition at 10 µM in experiment [1] (setting [3]) came to 85%; in experiment [2] (setting [4]), 100%.

Take `CN(C)CCC1(c2cccnc2)CCN(C(=O)CC(NS(=O)(=O)c2ccc3ccccc3c2)c2ccccc2)CC1` (centres unmarked) [Example 7, N-(3-(4-(2-(Dimethylamino)ethyl)-4-(pyridin-3-yl)piperidin-1-yl)-3-oxo-1-phenylpropyl)naphthalene-2-sulfonamide]: the results for the inhibition at 10 µM in experiment [1] (setting [3]) and in experiment [2] (setting [4]) were 37% and 89%, respectively.

With `COc1cc(C)c(S(=O)(=O)N2CCCCC2COCC(=O)N2CCC(CCN(C)C)(c3cccnc3)CC2)c(C)c1` (centres unmarked) [Example 8, 1-(4-(2-(Dimethylamino)ethyl)-4-(pyridin-3-yl)piperidin-1-yl)-2-((1-(4-methoxy-2,6-dimethylphenylsulfonyl)piperidin-2-yl)methoxy)ethanone], the figures for the inhibition at 10 µM in experiment [1] (setting [3]) and in experiment [2] (setting [4]) were 102% and 104%, respectively.

Consider `COc1cc(C)c(S(=O)(=O)N(C)CCOCC(=O)N2CCC(CCN(C)C)(c3cccnc3)CC2)c(C)c1` [Example 9, N-(2-(2-(4-(2-(Dimethylamino)ethyl)-4-(pyridin-3-yl)piperidin-1-yl)-2-oxoethoxy)ethyl)-4-methoxy-N,2,6-trimethylbenzenesulfonamide], for which the inhibition at 10 µM came out at 102% in experiment [1] (setting [3]) and 104% in experiment [2] (setting [4]).

On to `CN(C)CCC1(c2cccnc2)CCN(C(=O)CC2CCCCN2S(=O)(=O)c2cccc(C(F)(F)F)c2)CC1` (centres unmarked) [Example 10, 1-(4-(2-(Dimethylamino)ethyl)-4-(pyridin-3-yl)piperidin-1-yl)-2-(1-(3-(trifluoromethyl)phenylsulfonyl)piperidin-2-yl)ethanone], for which the inhibition at 10 µM in experiment [1] (setting [3]) is 65%; in experiment [2] (setting [4]), 103%.

Regarding `COc1cc(C)c(S(=O)(=O)N2c3ccccc3CCC2COCC(=O)N2CCC(CCCN3CCCC3)(c3cccnc3)CC2)c(C)c1` (centres unmarked) [Example 54, 2-[[1-[(4-Methoxy-2,6-dimethyl-phenyl)sulfonyl]-1,2,3,4-tetrahydro-quinolin-2-yl]-methoxy]-1-[4-pyridin-3-yl-4-(3-pyrrolidin-1-yl-propyl)-piperidin-1-yl]-ethanone], the “B1R antagonism, human [10 μM] % inhibition” value in experiment [2] (test substance 10 μM, CHO K1 cells stably transfected with human B1R, agonist Lys-Des-Arg9-bradykinin at EC80, % inhibition compared with maximum achievable inhibition) came out at 100%.

With `O=C(COCC1COc2ccccc2N1S(=O)(=O)c1ccccc1C(F)(F)F)N1CCC(CCCN2CCCC2)(c2ccncc2)CC1` (centres unmarked) [Example 75, 1-[4-Pyridin-4-yl-4-(3-pyrrolidin-1-yl-propyl)-piperidin-1-yl]-2-[[4-[[2-(trifluoromethyl)-phenyl]sulfonyl]-3,4-dihydro-2H-[1,4]benzoxazin-3-yl]-methoxy]-ethanone], the inhibition at 10 µM in experiment [1] (setting [3]) is 68%.

Turning to `COc1cc(C)c(S(=O)(=O)N(CCOCC(=O)N2CCC(CCCN3CCCC3)(c3ccncc3)CC2)Cc2ccc3c(c2)OCOC3)c(C)c1` [Example 76, N-(4H-[1,3]Benzodioxin-7-yl-methyl)-4-methoxy-2,6-dimethyl-N-[2-[2-oxo-2-[4-pyridin-4-yl-4-(3-pyrrolidin-1-yl-propyl)-piperidin-1-yl]-ethoxy]-ethyl]-benzenesulfonic acid amide], in experiment [1] (setting [3]), the inhibition at 10 µM is 101%.
